{"source": "patent US20020091086A1", "about": "“Peptides that block viral infectivity and methods of use thereof” (priority 1999, published 2002)", "key": {"[1]": {"assay": "18 day intraperitoneal toxicity in mice", "assay_type": "in vivo", "details": "intraperitoneal 0.01, 0.1 and 1 g per kilo bodyweight and day, 18 days from age 6 days", "procedure": "In this example, the results from several in vivo toxicology studies on small peptides administered in large doses to rodents are presented. In a first experiment, a large single dose of small peptide was delivered to mice and the toxic effects were analyzed. […] In a second experiment, several doses of varying amounts of a small peptide were delivered to mice for almost three weeks. Groups of mice (five mice in each group) were given intraperitoneal injections of GPG-NH2 (0.01, 0.1 and 1 g per kilo bodyweight and day, respectively) starting at an age of 6 days. Daily injections were continued for 18 days. […] In a similar experiment, a four week toxicology study of GPG-NH2 was performed by Scantox A/S in Denmark. GPG-NH2 was given orally to rats at doses up to 1 g per kilo bodyweight per day for twenty eight days."}, "[2]": {"tested_on": "HSV-1", "assay_type": "cell-based", "details": "concentrations up to 1 mM"}, "[3]": {"tested_on": "H9", "assay": "cytotoxicity, cell counting", "details": "40 mM, 3 days", "procedure": "(§1) The in vitro 50% cytotoxic concentrations (CC50) of various cell lines was also assessed. Accordingly, different concentrations of GPG-NH2, up to 40 mM, was supplemented into the medium culture of T-cell lines HUT78, H9, CEM-SS, MT-2 and (non) induced ACH-2, as well as, the macrophage derived cell lines […], THP-1 and (non) induced U-1 cells. After 3 days of incubation, the number of cells were counted."}, "[4]": {"tested_on": "THP-1", "assay": "cytotoxicity, cell counting", "details": "40 mM, 3 days", "procedure": "as §1"}, "[5]": {"tested_on": "CEM-SS", "assay": "cytotoxicity, cell counting", "details": "40 mM, 3 days", "procedure": "as §1"}, "[6]": {"target": "HIV-1 specific protease (Human immunodeficiency virus type 1 group M subtype B, UniProt P04585)", "assay": "activity of the HIV-1 specific protease", "assay_type": "biochemical"}, "[7]": {"assay": "radioactivity associated with rat plasma proteins, SDS/PAGE", "assay_type": "in vivo, rats", "details": "60 minutes after feeding", "procedure": "The proteins from whole plasma were also analyzed by column chromatography and fractionated and crude protein were separated by sodium dodecyl sulfate polyacrylamide gel (10%) electrophoresis (SDS/PAGE). Rat plasma samples were partially purified with size exclusion ([…], Phamacia) chromatography (0.4×6 cm), in a buffer of 10 mM Tris-HCl pH 8.3 and 50 mM KCl. Eluate was then separated by anionic exchange chromatography by using an increasing stepwise gradient of NaCl in a buffer of 10 mM Tris-HCl pH8.3 (Sepharose CL-6B DEAE, 0.4×6 cm). The eluate was monitored and pooled according to the radioactivity (Ready Safe, Beckman; LKB 1218, Sweden). The protein fractions with strong signal were separated on a 10% SDS-PAGE and were subsequently blotted onto PVDF (polyvinylidene difluoride, BioRad) membrane before being subjected to Edman N-terminal amino acid sequencing (Applied Biosystems Procise Sequencer, USA).\nThe proteins marked B1-B4 were sequenced and determined to be alpha-1 antitrypsin (Bi), pentaxin (B-2), C-reactive protein (B-3), and B-4 could not be identified. These proteins are all synthesized in the liver. One interpretation is that hydrolyzed GPG-NH2 was reutilized in the liver protein synthesis. […]"}, "[8]": {"tested_on": "GPG-deleted mutant mp10", "assay": "infectivity in MT-2 cells, p24 ELISA, GPG-deleted mutant mp10", "assay_type": "cell-based, HIV-1", "procedure": "Accordingly, the ability of GPG-NH2 to inhibit the infectivity of wild-type and V3-loop deletion mutants (GPG domain) in MT-2 cells was determined. In these experiments, approximately 200,000 MT-2 cells were infected with HIV-1Bru wild-type and GPG-deleted mutants mp8 and mp10 at 25 TCID50 to test the inhibitory effect of GPG-NH2 The MT-2 cells were resuspended in 1 ml of RPMT 1640 medium supplemented with 10% (v/v) heat-inactivated fetal bovine serum (FBS, GIBCO), penicillin (100μ/ml), streptomycin (100μ/ml) and Polybrene (Sigma 2 μg/ml) with or without the presence of GPG-NH2 at concentration 20 of μM and 100 μM. Thereafter, viruses were added at 25 TCID50 in a volume of 20-30 μl. Cells were incubated with virus at 37° C. for 16 hr then loosely pelleted by centrifugation at 170×g for 7 minutes. The cells were then washed three times in RPMI medium without peptides at room temperature by cell sedimentation at 170×g for 7 minutes as above. After the final wash, the cells were resuspended in RPMI culture medium in 24-well plate (Costar corporation) then kept at 37° C. in 5% CO2 with humidity. Culture supernatants were collected when medium was changed at day 4, 7, 11 and 14 post infection. To monitor the replication of virus, HIV-1 p24 antigen protein in the supernatants from day 7 and 14 was assayed by a ELISA kit (Abbott Laboratories) which has a linear dose-response range from 20 pg to 640 pg of p24 per ml and the p24 amount can be determined with aid of the regression line."}, "[9]": {"tested_on": "human mononuclear cells", "assay": "in vitro proliferative response of human mononuclear cells", "assay_type": "cell-based", "details": "20 μM", "procedure": "Next, the toxicity to normal human lymphomonocytic cells (PBMC) was examined. […] The effect of GPG-NH2 on in vitro proliferative response of human mononuclear cells was also tested."}, "[10]": {"tested_on": "HIV-1 isolate p7227 (high AZT)", "assay": "resistant HIV-1 isolates in PBMC, p24 ELISA", "assay_type": "cell-based", "details": "GPG 100 μM, 14 days post infection"}, "[11]": {"tested_on": "HIV-1 isolate p7163 (inter AZT)", "assay": "resistant HIV-1 isolates in PBMC, p24 ELISA", "assay_type": "cell-based", "details": "GPG 100 μM, 14 days post infection"}}, "note": "Peptide text beside a SMILES is read from it.", "data": [{"smiles": "NCC(=O)N1CCC[C@H]1C(=O)NCC(N)=O", "note": "[GPG-NH2, glycyl-prolyl-glycine amide] (H-Gly-Pro-Gly-NH2)", "values": [{"measurement": "influence on the mice compared to controls", "setting": "[1]", "result": "no significant influence"}, {"measurement": "HSV-1 replication", "setting": "[2]", "result": "failed to reduce HSV-1 replication"}, {"measurement": "decrease in cell number", "setting": "[3]", "result": "less than 20%"}, {"measurement": "decrease in cell number", "setting": "[4]", "result": "less than 20%"}, {"measurement": "decrease in cell number", "setting": "[5]", "result": "less than 20%"}, {"measurement": "activity of the HIV-1 specific protease", "setting": "[6]", "result": "not to affect"}, {"measurement": "radioactivity covalently associated with plasma proteins", "setting": "[7]", "result": "little radioactivity was observed to be covalently associated with proteins"}, {"measurement": "p24", "setting": "[8]; GPG 20 μM, Day 7", "result": 1560, "unit": "pg/mL"}, {"measurement": "reduction (%)", "setting": "[8]; GPG 20 μM, Day 7", "result": 50, "unit": "%"}, {"measurement": "p24", "setting": "[8]; GPG 20 μM, Day 14", "result": 51500, "unit": "pg/mL"}, {"measurement": "reduction (%)", "setting": "[8]; GPG 20 μM, Day 14", "result": 89, "unit": "%"}, {"measurement": "p24", "setting": "[8]; GPG 100 μM, Day 7", "result": 173, "unit": "pg/mL"}, {"measurement": "reduction (%)", "setting": "[8]; GPG 100 μM, Day 7", "result": 94, "unit": "%"}, {"measurement": "p24", "setting": "[8]; GPG 100 μM, Day 14", "result": 47700, "unit": "pg/mL"}, {"measurement": "reduction (%)", "setting": "[8]; GPG 100 μM, Day 14", "result": 90, "unit": "%"}, {"measurement": "anti-proliferative properties on T cells", "setting": "[9]", "result": "marginal if any direct anti-proliferative properties"}, {"measurement": "function of accessory cells (monocytes and dendritic cells)", "setting": "[9]", "result": "did not affect the function of accessory cells"}, {"measurement": "% reduction", "setting": "[10]", "result": "(100%)"}, {"measurement": "HIV-1 p24", "setting": "[10]", "result": "<500", "unit": "pg/mL"}, {"measurement": "% reduction", "setting": "[11]", "result": "(100%)"}, {"measurement": "HIV-1 p24", "setting": "[11]", "result": "<500", "unit": "pg/mL"}]}]}
